Measurements taken from patent publication US20040037806A1, “Aldosterone blocker therapy to prevent or treat inflammation-related disorders” (Pharmacia Corporation, priority 2002, published 2004).

Assays:
[1] = system: Osteopontin, ED-1, CD-3, ICAM-1, VCAM-1; assay: Assay C: immunohistochemistry of myocardial tissue; assay type: in vivo, rat; details: aldosterone+salt alone or with eplerenone 100 mg/kg/day
Experimental: The procedure of Assay B was expanded upon in a further study. […] Myocardial tissue from animals in each treatment group was examined after 7, 14, or 30 days of treatment. […] Lesions were preceded by the expression and progressive upregulation of proinflammatory molecules.
Potassium chloride supplementation was added to the saline solution in order to prevent the potential hypokalemia associated with aldosterone excess.
Treatment At the time of the surgery, an Alzet 2002 osmotic minipump (Alza Corp., Palo Alto, Calif.) containing either vehicle (9% ethanol/87% propylene glycol/4% dH2O) or 1.0 mg/mL d-aldosterone (Sigma Chemical, St. Louis, Mo.) was inserted subcutaneously at the nape of the neck. Aldosterone was administered at a dose of 0.75 µg/hour. […] Animals were sacrificed from each group (n=8-13) after 7, 14, or 30 days of treatment.
Five μm sections were deparaffinized in xylene (two, 5-10 min incubations) and rehydrated by 3 min incubations in ethanol as follows: two incubations in 100% ethanol followed by two incubations in 95% alcohol and one incubation in 70% alcohol. Once hydrated, sections were rinsed in tap water for 1 min and distilled water for 1 min. Endogenous peroxide activity was blocked by placing slides in 3.0% H2O2 for 15 min followed by a 5 min rinse in distilled water. Slides were processed for antigen retrieval using citric acid, pH6.0. […]

[2] = Assay C: body weight, ventricle weights, tibia length (myocardial hypertrophy); assay type: in vivo, rat; details: for Ventricular hypertrophy (absolute ventricular weights, ventricular weight to tibia length ratios): aldosterone+salt alone or with eplerenone 100 mg/kg/day, 7, 14, 30 days; for Body weight: aldosterone+salt at days 7, 14 and 30 vs vehicle+salt, eplerenone 100 mg/kg/day effect at day 30
Experimental: The procedure of Assay B was expanded upon in a further study. […] Myocardial tissue from animals in each treatment group was examined after 7, 14, or 30 days of treatment. […] Lesions were preceded by the expression and progressive upregulation of proinflammatory molecules. […] Male Sprague-Dawley rats, weighing 230 to 250 g, (Harlan Sprague-Dawley Industries, Indianapolis, Ind.) were housed in a room 12-hours light/12-hours dark daily cycle at an ambient temperature of 22±1° C. (n=96). Animals were allowed one week to adjust after arrival and had free access to TEKLAD 22/5 rodent diet (Harlan TEKLAD, Madison, Wis.) and tap water until the initiation of the experiment. Prior to surgery the animals were individually weighed and placed in one of the following groups: […] Potassium chloride supplementation was added to the saline solution in order to prevent the potential hypokalemia associated with aldosterone excess. Treatment At the time of the surgery, an Alzet 2002 osmotic minipump (Alza Corp., Palo Alto, Calif.) containing either vehicle (9% ethanol/87% propylene glycol/4% dH2O) or 1.0 mg/mL d-aldosterone (Sigma Chemical, St. Louis, Mo.) was inserted subcutaneously at the nape of the neck. Aldosterone was administered at a dose of 0.75 µg/hour. […] Animals were sacrificed from each group (n=8-13) after 7, 14, or 30 days of treatment. At the cessation of each experimental time point, the animals were anesthetized with pentobarbital (65 mg/kg i.p., Sigma Chemical, St. Louis Mo.) and weighed with a Mettler PM6000 balance (Mettler-Toledo, Inc., Hightstown, N.J.). The abdominal cavity was opened to expose the abdominal aorta. A 16-gauge needle was inserted into the abdominal aorta and the animal was exsanguinated into a 12 cc syringe. The blood sample was transferred immediately into glass serum collection tubes (Terumo Medical Corp., Elkton, Md.) for drug level analysis. The samples were placed on wet ice until sample collection was complete and centrifuged for 15 min at 3000 rev/min at 4° C. Following exsanguination, hearts and kidneys were isolated, removed, rinsed in cold phosphate-buffered saline, and blotted dry. Kidneys were immediately bifurcated through the long axis with a razor blade and placed in 10% neutral buffered formalin (NBF, Richard-Allen Scientific, Kalamazoo, Mich.). For the hearts, the right ventricle (RV) was cut away from the left ventricle (LV), both ventricles were weighed using a Mettler AE163 balance (Mettler-Toledo, Inc., Hightstown, N.J.), and the RV was placed in 10% NBF. […] Final wet trimming was completed after 3-4 days fixation where a second 2 mm coronal slab was removed for hydroxyproline analysis and a third 2mm slab was removed from the equatorial region for histology.

Structure (SMILES) | Immunohistochemical staining of marker proteins in myocardial tissue [1] | Ventricular hypertrophy (absolute ventricular weights, ventricular weight to tibia length ratios) [2] | Body weight [2] | Final Body Weight ([2]; 7 days of treatment, uninephrectomized Sprague-Dawley rats, 1% NaCl-0.3% KCl, aldosterone infusion alone or with eplerenone 100 mg/kg/day, individual rats and group Mean) [g]
C[C@]12CCC(=O)C=C1CC[C@@H]1[C@@H]2[C@@H](O)C[C@]2(C=O)[C@@H](C(=O)CO)CC[C@@H]12 [aldosterone] | Significant expression of osteopontin | Significant left and right ventricular hypertrophy | significantly lower | 
COC(=O)[C@@H]1CC2=CC(=O)CC[C@]2(C)[C@@]23O[C@@H]2C[C@@]2(C)[C@@H](CC[C@@]24CCC(=O)O4)[C@H]13 [eplerenone] | markedly blunted | did not impact absolute ventricular weights or ventricular weight to tibia length ratios | significantly attenuated | 286
